Toxic doses and inconclusive results are not listed.
System: BDF1 mice, P388 leukemia ip, median survival T/C
Experiment: NCI In Vivo Anticancer Drug Screen. Data for tumor model P388 Leukemia (intraperitoneal) in B6D2F1 (BDF1) mice
Details: endpoint: median survival time, higher = longer survival
Summary of the method: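 Steps: implant the tumour, treat one group with compound and another with vehicle, record survival, then divide treated by control.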

[1] = dose: 100.0 mg/kg/injection, schedule: Q01DX009 (ip), vehicle: saline

CN(C)[C@@H]1C(=O)C(C(N)=O)=C(O)[C@@]2(O)C(=O)C3=C(O)c4c(O)cccc4C[C@H]3C[C@@H]12
T/C (dose: 3.75 mg/kg/injection, schedule: Q01DX010 (ip), vehicle: water): 100 % of control
T/C (dose: 7.5 mg/kg/injection, schedule: Q01DX010 (ip), vehicle: saline): 120 % of control
T/C (dose: 7.5 mg/kg/injection, schedule: Q01DX010 (ip), vehicle: water): 118 % of control
T/C (dose: 15.0 mg/kg/injection, schedule: Q01DX010 (ip), vehicle: saline): 120 % of control
T/C (dose: 20.0 mg/kg/injection, schedule: Q01DX010 (oral), vehicle: water): 109 % of control
T/C (dose: 35.0 mg/kg/injection, schedule: Q01DX010 (oral), vehicle: water): 100 % of control
T/C (dose: 50.0 mg/kg/injection, schedule: Q01DX010 (oral), vehicle: water): 100 % of control
T/C (dose: 60.0 mg/kg/injection, schedule: Q01DX010 (ip), vehicle: saline): 100 % of control
T/C (dose: 65.0 mg/kg/injection, schedule: Q01DX010 (oral), vehicle: water): 109 % of control
T/C (dose: 80.0 mg/kg/injection, schedule: Q01DX010 (oral), vehicle: water): 90 % of control

CC(=O)OC(C(=O)NCc1ccccc1)C(OC(C)=O)C(C)OS(C)(=O)=O (centres undefined)
T/C (dose: 50.0 mg/kg/injection, schedule: Q01DX009 (ip), vehicle: saline with Tween-80): 98 % of control
T/C (dose: 100.0 mg/kg/injection, schedule: Q01DX009 (ip), vehicle: saline with Tween-80): 106 % of control
T/C (dose: 200.0 mg/kg/injection, schedule: Q01DX009 (ip), vehicle: saline with Tween-80): 89 % of control

O=C1C(N2CCOCC2)=C(N2CC2)C(=O)C(N2CCOCC2)=C1N1CC1
T/C (dose: 1.5 mg/kg/injection, schedule: Q01DX009 (ip), vehicle: saline): 105 % of control
T/C (dose: 3.0 mg/kg/injection, schedule: Q01DX009 (ip), vehicle: saline): 94 % of control
T/C (dose: 6.0 mg/kg/injection, schedule: Q01DX009 (ip), vehicle: saline): 94 % of control

CCCCCC(C[N+](C)(C)C)C(=O)/C=C/c1ccc(Cl)cc1 (centres undefined)
T/C (dose: 6.25 mg/kg/injection, schedule: Q01DX001 (ip), vehicle: Klucel (hydroxypropylcellulose) (HPC)): 113 % of control
T/C (dose: 12.5 mg/kg/injection, schedule: Q01DX001 (ip), vehicle: Klucel (hydroxypropylcellulose) (HPC)): 100 % of control
T/C (dose: 25.0 mg/kg/injection, schedule: Q01DX001 (ip), vehicle: Klucel (hydroxypropylcellulose) (HPC)): 101 % of control
T/C (dose: 50.0 mg/kg/injection, schedule: Q01DX001 (ip), vehicle: Klucel (hydroxypropylcellulose) (HPC)): 88 % of control

CCN(c1ccccc1)c1ccc(C=O)cc1
T/C (dose: 100.0 mg/kg/injection, schedule: Q04DX003 (ip), vehicle: Klucel (hydroxypropylcellulose) (HPC)): 94 % of control
T/C (dose: 200.0 mg/kg/injection, schedule: Q04DX003 (ip), vehicle: Klucel (hydroxypropylcellulose) (HPC)): 100 % of control

O=c1ccc2nccc3c4ccccc4n1c23
T/C (dose: 100.0 mg/kg/injection, schedule: Q01DX001 (ip), vehicle: saline sonified): 100 % of control
T/C (dose: 200.0 mg/kg/injection, schedule: Q01DX001 (ip), vehicle: saline sonified): 100 % of control
T/C (dose: 400.0 mg/kg/injection, schedule: Q01DX001 (ip), vehicle: saline sonified): 100 % of control

c1ccc(-c2c[se]nn2)cc1
T/C (dose: 1.56 mg/kg/injection, schedule: Q01DX009 (ip), vehicle: saline + alcohol): 102 % of control
T/C (dose: 3.13 mg/kg/injection, schedule: Q01DX009 (ip), vehicle: saline + alcohol): 100 % of control
T/C (dose: 6.25 mg/kg/injection, schedule: Q01DX009 (ip), vehicle: saline + alcohol): 89 % of control
T/C (dose: 6.25 mg/kg/injection, schedule: Q01DX009 (ip), vehicle: saline with Tween-80): 86 % of control

Nc1nc(N)c(N=O)c(N)n1
T/C [1]: 150 % of control
T/C (dose: 200.0 mg/kg/injection, schedule: Q01DX009 (ip), vehicle: saline): 111 % of control
T/C (dose: 400.0 mg/kg/injection, schedule: Q01DX009 (ip), vehicle: saline): 106 % of control

c1ccc(P(=NC2CCCC2)(c2ccccc2)c2ccccc2)cc1
T/C (dose: 100.0 mg/kg/injection, schedule: Q04DX003 (ip), vehicle: saline with Tween-80): 110 % of control
T/C (dose: 200.0 mg/kg/injection, schedule: Q04DX003 (ip), vehicle: saline with Tween-80): 100 % of control
T/C (dose: 400.0 mg/kg/injection, schedule: Q04DX003 (ip), vehicle: saline with Tween-80): 110 % of control

CC1(C)CC(=O)c2ccccc21
T/C (dose: 25.0 mg/kg/injection, schedule: Q01DX009 (ip), vehicle: saline): 99 % of control
T/C (dose: 50.0 mg/kg/injection, schedule: Q01DX009 (ip), vehicle: saline): 115 % of control
T/C (dose: 50.0 mg/kg/injection, schedule: Q04DX003 (ip), vehicle: saline): 102 % of control
T/C [1]: 95 % of control
T/C (dose: 100.0 mg/kg/injection, schedule: Q04DX003 (ip), vehicle: saline): 100 % of control
T/C (dose: 200.0 mg/kg/injection, schedule: Q04DX003 (ip), vehicle: saline): 109 % of control

O=C(/C=C\c1ccccc1)/C=C/c1ccccc1
T/C (dose: 100.0 mg/kg/injection, schedule: Q04DX003 (sc), vehicle: olive oil, sesame oil, peanut oil): 100 % of control
T/C (dose: 200.0 mg/kg/injection, schedule: Q04DX003 (sc), vehicle: olive oil, sesame oil, peanut oil): 100 % of control
T/C (dose: 400.0 mg/kg/injection, schedule: Q04DX003 (sc), vehicle: olive oil, sesame oil, peanut oil): 100 % of control

From PubChem BioAssay AID328 (DTP/NCI, 2004)
